Experimental data from patent US20110207817A1, “ANTI-INFLAMMATORY COMPOUNDS AND COMPOSITIONS THEREOF” (priority 2008, published 2011).

Experiments:
Assay type in all cases: cell-based
[1] = system: Human Gingival Fibroblast (HGF) cells; experiment: PGE2 release from LPS-irritated Human Gingival Fibroblast cells, neat solution (Example 1); conditions: for PGE2 Release (with LPS): 2 μg/mL P. gingivalis LPS, negative control without LPS = 100%
Description: For Examples 1 through 3, three sets of cell culture experiments were conducted in order to establish the anti-inflammatory efficacy of sodium propyl paraben. In all cases, in-vitro testing was conducted using Human Gingival Fibroblast cells suspended in low serum media. To irritate the cells, 2 μg/mL lipopolysaccharide (LPS) derived from P. gingivalis was added to the media. Sodium propyl paraben was added either directly to the media or incorporated into an adhesive matrix which was then suspended into the media by means of a permeable plastic insert. Cellular response was quantified by the presence of Prostaglandin E2 (PGE2), a cytokine associated with cellular irritation and inflammation, following an incubation period. Data is reported below after normalizing the level of PGE2 release of a negative control to “100%”. In-vitro testing was conducted using Human Gingival Fibroblast (HGF) cells that had been purchased from ScienCell (Carlsbad, Calif.). Prior to use, the cells had been grown in a 37° C. incubator with 5% CO2 and 95% humidity. Cells were maintained in high glucose Dulbecco's Modified Eagle's Medium (Mediatech, Manassas, Va.) with a 10% addition of heat inactivated Fetal Bovine Serum (Mediatech) and a 1% addition of Penicillin-Streptomycin 100× solution (Mediatech). Cells that had been previously frozen for long-term storage were allowed to recover/expand for at least one passage before being utilized for experimentation. To plate the cells, the maintenance medium was aspirated and the cells were washed with Hank's Balanced Salt Solution (Mediatech). Subsequently, the HBSS was aspirated and a trypsin-EDTA solution (Mediatech) was added to ensure that the cells released from the tissue culture plastic. Maintenance medium was reapplied and fractions of the solution containing the cells were transferred to a multi-well plate. After transfer, incubation was conducted to expand the cell population to 80% confluency. When the desired level of confluency was achieved, the maintenance medium was aspirated and one of several test solutions was added. For a negative control, a low serum medium was prepared that contained 0.5% of Fetal Bovine Serum (Mediatech) and 581.08 mg/L of L-gluatmine powder (Sigma-Aldrich, Milwaukee, Wis.) in DMEM High Glucose Media without Phenol Red and L-Glutamine (VWR Scientific, West Chester, Pa.). Low serum media were also prepared with the addition of 1, 10, or, 100 μg/mL of sodium propyl paraben (Sigma-Aldrich). […] An ELISA kit from R&D Systems (Minneapolis, Minn.) was used to quantify the release of PGE2 from the cells. […] The quantity of PGE2 reported by the assay was normalized by the percentage of viable cells or total protein. […]

[2] = system: Mouse macrophage Raw 264.7 cells; experiment: LPS-induced PGE2 release from Raw 264.7 cells (Example 4)
Description: (§1) In the presence and absence of sodium propyl paraben, mouse macrophage cells (RAW 264.7) and human gingival cells (HGF) were stimulated with LPS and the levels of inflammatory mediators Prostaglandin E2 (PGE2) and interleukin 8 (IL-8) in the cell supernatants were measured. While LPS administration increased the secretion of inflammatory mediators, sodium propyl paraben decreased LPS induced secretion of these mediators in a dose dependent manner. Sodium propyl paraben was identified as a novel anti-inflammatory agent, inhibiting the secretion of inflammatory mediators from both leukocytes and gingival fibroblasts. Mouse macrophage Raw 264.7 cells and human gingival fibroblast HGF cells were purchased from ATCC (Manassas, Va.) and ScienCell LLC (Carlsbad, Calif.), respectively. All of the culturing reagents were purchased from Mediatech (Manassas, Va.) unless otherwise stated. Both cell lines were cultured in a humidified incubator at 37° C. and in the presence of 5% CO2 and maintained in Dulbecco's Modified Eagle Medium (DMEM, 4.5 g/l glucose) supplemented with 10% Fetal Bovine Serum (FBS) and 1% penicillin-streptomycin. […] The level of PGE2 or IL-8 was analyzed using commercially available enzyme-linked immunosorbent assay (ELISA) kits (R&D Systems, Minneapolis, Minn.). […]

[3] = system: human gingival fibroblast HGF cells; experiment: LPS-mediated IL-8 production (Example 4)
Description: as §1

[4] = system: human gingival fibroblast HGF cells; experiment: LPS-induced PGE2 release from HGF cells (Example 4); conditions: 100 μg/ml, without LPS
Description: as §1

With `CCCOC(=O)c1ccc(O)cc1.[Na]` [Sodium Propyl Paraben, propyl 4-hydroxybenzoate, sodium salt] the “PGE2 Release (with LPS)” value ([1]; 1 μg/mL in low serum media) was 124 ± 52%, the “PGE2 Release (with LPS)” value ([1]; 10 μg/mL in low serum media) was 103 ± 23% and the “PGE2 Release (with LPS)” value ([1]; 100 μg/mL in low serum media) was 84 ± 62%. For the same molecule, the “PGE2 Release (without LPS)” value ([1]; 100 μg/mL in low serum media, no LPS, negative control = 100%) was 62 ± 37%, the “LPS-elevated release of PGE2” value ([2]; 1, 10 and 100 μg/ml, PG-LPS 2 μg/ml, FIG. 1A) was “reduced to basal level” and the “LPS mediated IL-8 production” value ([3]; 1, 10 or 100 μg/ml, PG-LPS 2 μg/ml, FIG. 1C) was “reduced LPS mediated IL-8 production in a dose dependent manner”.
With `CCCOC(=O)c1ccc(O)cc1` [propyl paraben, propyl 4-hydroxybenzoate] the “Induction of PGE2 by compound alone” value ([2]; 100 μg/ml, without LPS) was “not observed”, the “Induction of PGE2 by compound alone” value [4] was “not observed” and the “Induction of IL-8 by compound alone” value ([3]; 100 μg/ml, without LPS, either cell model) was “not observed”.
